The structures appear in SMILES notation. Values joined by “and” are separate entries in the source; they are usually repeats but may differ in a detail not shown here. Equal values may be shown once. Active and inactive are the calls of the source.

Sequence of Cytochrome P450 2C9 (P11712 whole entry): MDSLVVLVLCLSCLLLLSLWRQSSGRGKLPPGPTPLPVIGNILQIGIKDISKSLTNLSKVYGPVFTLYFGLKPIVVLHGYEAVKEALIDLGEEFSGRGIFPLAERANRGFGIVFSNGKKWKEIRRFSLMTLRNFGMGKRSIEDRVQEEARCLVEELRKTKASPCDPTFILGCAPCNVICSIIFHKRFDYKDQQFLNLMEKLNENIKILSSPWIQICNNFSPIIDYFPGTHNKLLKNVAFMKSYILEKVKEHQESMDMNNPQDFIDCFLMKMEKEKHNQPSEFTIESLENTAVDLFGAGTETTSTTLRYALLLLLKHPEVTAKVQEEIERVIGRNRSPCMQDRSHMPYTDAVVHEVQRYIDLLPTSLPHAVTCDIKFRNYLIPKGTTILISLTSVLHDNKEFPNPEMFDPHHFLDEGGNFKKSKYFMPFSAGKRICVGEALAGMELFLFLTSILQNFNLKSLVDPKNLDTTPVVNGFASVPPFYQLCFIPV
Sequence of Cytochrome P450 2C19 (P33261 whole entry): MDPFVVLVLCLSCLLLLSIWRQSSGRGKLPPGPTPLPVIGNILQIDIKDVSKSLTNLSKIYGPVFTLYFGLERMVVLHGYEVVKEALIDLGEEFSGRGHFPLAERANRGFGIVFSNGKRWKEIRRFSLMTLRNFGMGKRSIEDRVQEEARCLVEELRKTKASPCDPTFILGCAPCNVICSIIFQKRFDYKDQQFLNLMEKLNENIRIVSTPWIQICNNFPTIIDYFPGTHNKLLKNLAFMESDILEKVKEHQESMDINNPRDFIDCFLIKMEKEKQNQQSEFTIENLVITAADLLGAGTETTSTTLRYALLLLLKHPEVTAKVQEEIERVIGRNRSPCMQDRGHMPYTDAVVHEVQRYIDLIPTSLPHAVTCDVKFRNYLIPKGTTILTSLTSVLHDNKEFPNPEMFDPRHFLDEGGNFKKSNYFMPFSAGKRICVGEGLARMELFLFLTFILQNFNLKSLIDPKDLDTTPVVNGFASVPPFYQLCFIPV

The target of one data set is Cytochrome P450 3A4 (Homo sapiens, UniProt P08684).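 Further: CYP3A4 tested as one member of a cytochrome P450 panel screen.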
Sequence of Cytochrome P450 3A4 (P08684 whole entry): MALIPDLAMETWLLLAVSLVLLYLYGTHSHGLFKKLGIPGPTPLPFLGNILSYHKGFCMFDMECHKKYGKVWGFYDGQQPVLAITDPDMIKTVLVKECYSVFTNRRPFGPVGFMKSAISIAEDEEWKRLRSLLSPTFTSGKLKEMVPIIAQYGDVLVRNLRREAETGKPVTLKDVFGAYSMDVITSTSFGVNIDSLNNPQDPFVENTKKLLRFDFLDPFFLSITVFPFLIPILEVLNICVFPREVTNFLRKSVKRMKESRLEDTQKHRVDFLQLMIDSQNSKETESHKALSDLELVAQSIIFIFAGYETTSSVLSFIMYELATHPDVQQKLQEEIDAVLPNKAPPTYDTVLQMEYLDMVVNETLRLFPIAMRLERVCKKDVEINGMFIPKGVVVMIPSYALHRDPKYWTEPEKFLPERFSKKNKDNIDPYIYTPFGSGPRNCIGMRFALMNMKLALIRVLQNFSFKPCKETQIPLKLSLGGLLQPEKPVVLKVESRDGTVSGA
Details: not given
In the case of `O=C(c1cnccn1)N1CCC2(CCCN(c3ccccn3)C2)CC1`, the AC50 is 7.94 µM (inconclusive).

For the compound `CS(=O)(=O)N1CCC[C@@]2(CCN(C(=O)Nc3cccc(C#N)c3)C2)C1`, the AC50 is 20 µM (inconclusive).

In the case of `O=S(=O)(NCc1cc(-c2ccccc2)no1)c1ccc(Cl)cc1`, the AC50 is 25.1 µM (inconclusive).

Take `c1cc(CCN2CCCCC2)ccn1`: the AC50 was 6.31 µM (inconclusive).

For `O=C(Cn1ccc2ccccc2c1=O)N1CCN(c2cccc(Cl)c2)CC1`, the AC50 was 3.16 µM (inconclusive).

For the compound `CC(=O)N1N=C(c2cccc([N+](=O)[O-])c2)OC1c1ccccc1Cl` (stereo unspecified), the AC50 is 39.8 µM (inconclusive).

`O=c1c(-c2ccc(Cl)cc2)nc2cnc(N3CCNCC3)nc2n1CCc1ccccc1`: the AC50 was 31.6 µM (inconclusive).

`COc1cc(CN2CCN(C(=O)COc3ccccc3)CC2)cc(OC)c1OC`: the AC50 is 22.4 µM (inconclusive).

With `CC(=O)OC[C@@H]1O[C@H](C/C=N\O[C@@H](C)c2cn([C@H](CO)Cc3ccccc3)nn2)C=C[C@@H]1OC(C)=O`, the AC50 was 5.01 µM (inconclusive) and 3.98 µM (inconclusive).

As for `CCOC(=O)c1c(-c2ccccc2)nc2c(C)cccn12`, the AC50 is 14.1 µM (inconclusive).

In the case of `CC(C)CN1CCCC2(CCN(C(=O)c3cccc(F)c3)CC2)C1`, the AC50 is 25.1 µM (inconclusive).

Take `COc1ccc2c(c[n+](C)c3c4cc5c(cc4ccc23)OCO5)c1OC` [CHELERYTHRINE]: the AC50 is 31.6 µM (inconclusive).

Consider `O=C(c1ccco1)N1CCC[C@@]2(CCN(Cc3ccccc3)C2)C1`, for which the AC50 was 20 µM (inconclusive).

Turning to `O=C(c1csnn1)N1CCC2(CC1)CCN(c1ccncc1)CC2`, the AC50 is 15.8 µM (inconclusive).

Regarding `c1ccc(CNc2cc(-c3ccoc3)ncn2)cc1`, the AC50 is 12.6 µM (inconclusive).

In the case of `Cn1c(=O)c(-c2ccc(F)c(F)c2)nc2cncnc21`, the AC50 is 20 µM (inconclusive).

Another data set deals with INS1. As to the kind of experiment: beta cell apoptosis inhibitors, cytokine rescue, dose response, luminescence, retest (AID 449756).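 Further: cell death triggered by IL-1 beta plus TNF-alpha plus IFN-gamma mixture; protective hits raise ATP signal compared with cytokine alone wells.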 In kind it is functional, cell-based. As to conditions: Rattus norvegicus.
Turning to `CCOC(=O)c1cnc(-n2nc(C)cc2C)nc1Nc1ccc(O)cc1`, the AC50 is 1.67 µM (active).

`Cc1ccc(-c2csc(NC(=O)c3c(C)noc3C)n2)s1`: the AC50 is 3.99 µM (active).

Consider `CCOC(=O)C1=C(CCc2ccccc2)NC(=O)NC1c1ccc2ccccc2c1` (stereo unspecified), for which the AC50 was 31.5 µM (active).

As for `C(=C\c1nc(N2CCCCCC2)c2ccccc2n1)/c1ccccc1`, the AC50 was 6.21 µM (active).

Turning to `Cc1cc(N/N=C/c2cccc(Cl)c2)nc(-n2nc(C)cc2C)n1`, the AC50 was 2.69 µM (active).

With `OC(COC(c1ccc(F)cc1)c1ccc(F)cc1)CN1CCc2ccccc2C1` (stereo unspecified), the AC50 was 18.2 µM (active).

Another data set concerns the target Cytochrome P450 2C19 (Homo sapiens, UniProt P33261). In words: Cytochrome panel assay with activity outcomes. Panel member name: p450-cyp2c19 Compounds with AC50 equal or less than 10 uM are considered active. In kind it is functional.
Details: not given
As to `C[N+]1(C)CCC[C@@H](OC(=O)C(O)(c2ccccc2)c2ccccc2)C1`, the AC50 result is “inconclusive”.

For the compound `O=C(O)C/C(=C\c1ccco1)C(=O)O`, the AC50 result is “inconclusive”.

Turning to `Cc1ccc(S(=O)ON2CCC(C(=O)O)(c3ccccc3)CC2)cc1` (stereo unspecified), the AC50 result is “inconclusive”.

As to `C[C@@H]1O[C@@H](O)[C@@H](O)[C@H](O)[C@H]1O`, the AC50 entry is “inconclusive”.

Regarding `Clc1ccc(-c2nnc(-c3cccc4ccccc34)o2)cc1Cl`, the AC50 entry is “inconclusive”.

Turning to `CCN1CCN(CCC(=O)Nc2cccc(OC)c2)CC1.Cl`, the AC50 result was “inconclusive”.

As to `C=CC1=C[C@@H](O)C2OC2C12OCCCO2` (stereo partly specified), the AC50 result is given as “inconclusive”.

Still in this data set, the particulars now being: read-out: AC50.
As for `O=C(Cn1ccc2ccccc2c1=O)N1CCN(c2cccc(Cl)c2)CC1`, the half-maximal activity concentration (AC50) was 7.08 µM (inconclusive).

`O=C(COc1ccc([N+](=O)[O-])cc1)N[N-][C+]1CCCC1`: the AC50 was 1.78 µM (inconclusive).

Regarding `Nc1ncnc2c1cnn2-c1ccccc1`, the AC50 was 4.47 µM (inconclusive).

On to `O=C(CSc1ccccc1)Nc1ccc(N2CCN(c3ccccc3)CC2)c(F)c1`, for which the AC50 is 39.8 µM (inconclusive).

Regarding `C[n+]1ccc(/C=C/c2ccc(Br)cc2)cc1`, the AC50 was 3.98 µM (inconclusive).

As for `O=C(c1csnn1)N1CCC2(CC1)CCN(c1ccncc1)CC2`, the AC50 was 39.8 µM (inconclusive).

For `COC(=O)[C@@]1(Cc2ccc(OC)cc2)[C@@H]2[C@@H](CC(=O)[C@H]2CC(=O)C(=O)N2CCCC2)CN1C(=O)c1ccccc1`, the AC50 is 25.1 µM (inconclusive).

As for `COC1=CC(=O)O[C@@H](/C=C\c2ccccc2)C1`, the AC50 is 5.01 µM (inconclusive).

The next data set has as its target Cytochrome P450 2C9 (Homo sapiens, UniProt P11712).
Details: not given
For the compound `O=C(COc1ccc([N+](=O)[O-])cc1)N[N-][C+]1CCCC1`, the AC50 is 0.0251 µM (inconclusive).

As for `COc1cc(CN2CCN(C(=O)COc3ccccc3)CC2)cc(OC)c1OC`, the AC50 was 22.4 µM (inconclusive).

Regarding `O=C(CSc1ccccc1)Nc1ccc(N2CCN(c3ccccc3)CC2)c(F)c1`, the AC50 is 0.447 µM (inconclusive).

In the case of `COc1ccc2c(c[n+](C)c3c4cc5c(cc4ccc23)OCO5)c1OC` [CHELERYTHRINE], the half-maximal activity concentration (AC50) is 39.8 µM (inconclusive).

As to `COc1ncc2nc(-c3ccc(Cl)cc3)c(=O)n(Cc3cccs3)c2n1`, the AC50 is 15.8 µM (inconclusive).

For `O=C(c1csnn1)N1CCC2(CC1)CCN(c1ccncc1)CC2`, the AC50 is 15.8 µM (inconclusive).

Consider `O=c1c2cc(Br)ccc2[nH]c(=S)n1Cc1cccnc1`, for which the AC50 was 12.6 µM (inconclusive).

As to `COC(=O)[C@@]1(Cc2ccc(OC)cc2)[C@@H]2[C@@H](CC(=O)[C@H]2CC(=O)C(=O)N2CCCC2)CN1C(=O)c1ccccc1`, the AC50 is 20 µM (inconclusive).

The target in the next data set is Cytochrome P450 2D6 (Homo sapiens, UniProt P10635).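 Further: CYP2D6 member of a cytochrome P450 panel assay.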
Sequence of Cytochrome P450 2D6 (P10635 whole entry): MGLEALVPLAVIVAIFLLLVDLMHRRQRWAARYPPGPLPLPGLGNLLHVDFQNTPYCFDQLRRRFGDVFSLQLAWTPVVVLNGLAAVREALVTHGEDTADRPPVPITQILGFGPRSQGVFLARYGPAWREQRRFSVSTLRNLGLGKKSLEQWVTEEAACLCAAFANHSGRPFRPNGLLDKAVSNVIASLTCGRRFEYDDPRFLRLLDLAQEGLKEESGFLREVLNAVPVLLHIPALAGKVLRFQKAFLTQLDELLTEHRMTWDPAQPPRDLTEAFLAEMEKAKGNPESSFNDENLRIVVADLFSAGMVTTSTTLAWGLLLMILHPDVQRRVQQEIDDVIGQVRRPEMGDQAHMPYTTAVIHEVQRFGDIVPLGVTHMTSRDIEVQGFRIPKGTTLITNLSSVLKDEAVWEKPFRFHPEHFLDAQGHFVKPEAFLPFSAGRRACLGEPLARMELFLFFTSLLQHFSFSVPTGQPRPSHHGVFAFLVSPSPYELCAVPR
Details: not given
As for `Cc1cnc(CNc2ncncc2-c2ccccc2CN(C)C)cn1`, the AC50 is 39.8 µM (inconclusive).

With `O=C(c1cnccn1)N1CCC2(CCCN(c3ccccn3)C2)CC1`, the AC50 was 20 µM (inconclusive).

Turning to `O=S(=O)(NCc1cc(-c2ccccc2)no1)c1ccc(Cl)cc1`, the AC50 is 20 µM (inconclusive).

Turning to `Fc1ccc(N=C(S)NCCc2ccccc2)c(F)c1F`, the concentration at half-maximal activity (AC50) is 15.8 µM (inconclusive).

As for `O=C(c1ccncc1)N1CCC[C@@]2(CCN(Cc3nccs3)C2)C1`, the AC50 is 20 µM (inconclusive).

Consider `COC(=O)[C@@]1(Cc2ccccc2)[C@H]2c3cc(C(=O)N(C)C)n(Cc4cc(C)n(C)n4)c3C[C@H]2CN1C(=O)c1ccccc1`, for which the AC50 is 39.8 µM (inconclusive).

In the case of `Cc1noc(C)c1-c1nccc(NCc2ccccc2)n1`, the AC50 is 39.8 µM (inconclusive).

For `CCOC(=O)c1c(-c2ccccc2)nc2c(C)cccn12`, the AC50 is 0.00562 µM (inconclusive).

`C#CCn1c(S(=O)(=O)Cc2ccc(OC)cc2)nc(-c2ccccc2)c1-c1ccccc1`: the AC50 was 14.1 µM (inconclusive).

Take `CC(C)CN1CCCC2(CCN(C(=O)c3cccc(F)c3)CC2)C1`: the AC50 is 12.6 µM (inconclusive).

As to `Cc1cnc(CNc2cc(-c3ccccc3CN(C)C)ncn2)cn1`, the AC50 was 12.6 µM (inconclusive).

`COc1ccc2c(c[n+](C)c3c4cc5c(cc4ccc23)OCO5)c1OC` [CHELERYTHRINE]: the AC50 was 25.1 µM (inconclusive).

For the compound `COc1ncc2nc(-c3ccc(Cl)cc3)c(=O)n(Cc3cccs3)c2n1`, the AC50 is 2.51 µM (inconclusive).

As for `C[N+]1(C)CCC[C@@H](OC(=O)C(O)(c2ccccc2)c2ccccc2)C1`, the AC50 is 10 µM (inconclusive).

Turning to `CS(=O)(=O)N1CCC2(CCCN(Cc3ccc(C#N)cc3)C2)CC1`, the AC50 was 20 µM (inconclusive).

For `O=C(CSc1nnc(-c2ccncc2)n1Cc1ccccc1)Nc1nccs1`, the AC50 is 17.8 µM (inconclusive).

`C=C(CC1(C(C)NP(=O)(c2ccccc2)c2ccccc2)CC1)c1ccccc1` (stereo unspecified): the AC50 was 39.8 µM (inconclusive).

For `O=c1c2cc(Br)ccc2[nH]c(=S)n1Cc1cccnc1`, the AC50 is 8.91 µM (inconclusive).

Consider `CCOC(=O)c1c(-c2ccccc2)csc1NC(=O)c1cccc(N2C(=O)CCC2=O)c1`, for which the AC50 was 0.0112 µM (inconclusive).

Test system in a further data set: not listed separately
In words: Luminescence Cell-Based Dose Retest to Confirm Inhibitors of Cancer Stem Cells. [Related pubchem assays (depositor defined):AID2717, AID2721]. It counts as functional. As to conditions: Homo sapiens.
For `COc1ccc(-c2noc3c2-c2nc(-c4ccccc4C)sc2CC3)cc1`, the AC50 was 0.689 µM (active).

Turning to `CCCc1nc(NC2CCCCC2)c(C#N)c2c1COC(C)(C)C2`, the AC50 is 6.71 µM (active).

As to `CC(=O)Oc1ccc(-c2ccc(C(=O)Nc3cccc(S(=O)(=O)N4CCOCC4)c3)cc2)cc1`, the AC50 was 1.52 µM (active).

For the compound `O=C(CN1CCCCCC1)Nc1ccccc1Oc1ccccc1`, the AC50 is 0.493 µM (active).

Consider `C(=C\c1nc(N2CCCCCC2)c2ccccc2n1)/c1ccccc1`, for which the AC50 was 3.73 µM (active).

In the next data set the test system is Streptococcus. As to the kind of experiment: Group A Streptococcus viability loss, dose response, counter-screen for streptokinase expression inhibitor project, luminescence, BacTiterGlo (AID 1915).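 Further: potency for reduction of bacterial viability or growth.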 It counts as functional, organism-based.
Details: not given
Consider `Cc1cc(N/N=C/c2cccc(Cl)c2)nc(-n2nc(C)cc2C)n1`, for which the EC50 is 1.61 µM (active).

Another data set concerns Streptococcus sp. 'group A'. In words: growth inhibition of control SK(-) GAS strain, dose response, counter-screen for streptokinase expression inhibitor project, luminescence, kanamycin, BacTiterGlo, confirmation (AID 1900).
Details: not given
It counts as functional, organism-based.
`Cc1cc(N/N=C/c2cccc(Cl)c2)nc(-n2nc(C)cc2C)n1`: the EC50 was 1.34 µM (active).
